Test results as given in ChEMBL document CHEMBL3272278, “Electronic factors in the structure-activity relationship of some 1,4-benzodiazepin-2-ones” (1977).
Activity calls are given as the source filed them. The rule behind the calls is not given here.

Legend:
Type in all cases: functional
Mus musculus [1] = species: Mus musculus; test: Taming activity in mouse assessed as suppression of electrical current-induced aggressive behavior by foot-shock test
Felis catus = species: Felis catus; test: Muscle relaxant activity in cat suspended by scruff of neck assessed as relaxation of body and hind legs
Mus musculus [2] = species: Mus musculus; test: Muscle relaxant activity in mouse
Mus musculus [3] = species: Mus musculus; test: Anticonvulsion activity in mouse assessed as protection against pentylenetetrazole-induced convulsion
Mus musculus [4] = species: Mus musculus; test: Sedative activity in mouse

Row | SMILES | log(1/MED) (Mus musculus [1]) | log(1/MED) (Felis catus) | log(1/ED50) (Mus musculus [2]) | log(1/ED50) (Mus musculus [3]) | log(1/ED50) (Mus musculus [4]) | ED50 (Mus musculus [1]; Mus musculus) | Activity (Mus musculus [1]) | Activity (Mus musculus [2]) | Activity (Mus musculus [4]) | Activity (Mus musculus [3]) | ED50 (Mus musculus [3]; Mus musculus)
1 | O=C1CN=C(c2ccccc2Br)c2cc(Cl)ccc2N1 | 1.8443 | 4.0661 | 0.8443 | 2.7651 | 0.8443 |  |  |  |  |  | 
2 | CSc1ccc2c(c1)C(c1ccccc1)=NCC(=O)N2C | 0.8693 | 2.4714 | 0.7724 | 0.5963 | 0.7724 |  |  |  |  |  | 
3 | CN1C(=O)CN=C(c2ccccc2C(F)(F)F)c2cc([N+](=O)[O-])ccc21 | 1.8609 | 3.5599 | 0.8609 | 2.7148 | 0.8609 |  |  |  |  |  | 
4 | O=C1CN=C(c2ccccc2Cl)c2cc(Cl)ccc2N1 [DELORAZEPAM] | 0.8821 | 3.4842 | 0.4842 | 2.8821 | 0.4842 | 2 mg/kg |  |  |  |  | 
5 | CS(=O)(=O)c1ccc2c(c1)C(c1ccccc1)=NCC(=O)N2 |  |  |  | 0.2811 |  |  | inactive | inactive | inactive |  | 
6 | O=C1CN=C(c2ccccc2)c2c(Cl)cccc2N1 |  |  |  | 0.1311 |  |  | inactive | inactive | inactive |  | 
7 | O=C1CN=C(c2ccccc2)c2ccc(Cl)cc2N1 |  |  |  | -0.0917 |  |  | inactive | inactive | inactive |  | 
8 | O=C1CN=C(c2ccccc2)c2cc(F)ccc2N1 [RO-053061] | 0.4048 | 1.8028 | 0.2287 |  | 0.2287 |  |  |  |  | inactive | 
9 | O=C1CN=C(c2ccccc2)c2cc(Cl)cc(Cl)c2N1 |  | 2.1831 | 0.3081 | 1.5651 | 0.3081 |  | inactive |  |  |  | 
10 | O=C1CN=C(c2ccccc2)c2ccc(C(F)(F)F)cc2N1 |  |  | -0.1703 |  | -0.1703 |  | inactive |  |  |  | 
11 | O=C1CN=C(c2ccccc2)c2cccc([N+](=O)[O-])c2N1 |  |  | -0.2503 |  | -0.2503 |  | inactive |  |  | inactive | 
12 | Cc1ccccc1C1=NCC(=O)Nc2ccc(Cl)cc21 | 0.454 | 2.755 | 0.2779 | 1.5675 | 0.2779 |  |  |  |  |  | 
13 | CN1C(=O)CN=C(c2ccccc2)c2cc([N+](=O)[O-])ccc21 [NIMETAZEPAM] | 2.0719 | 3.4698 | 1.4698 | 2.6917 | 1.4698 |  |  |  |  |  | 
14 | O=C1CN=C(c2ccccc2[N+](=O)[O-])c2cc([N+](=O)[O-])ccc2N1 | 0.9112 |  |  | 2.9691 |  |  |  | inactive | inactive |  | 
15 | CN(C)c1ccc2c(c1)C(c1ccccc1)=NCC(=O)N2 |  | 1.4456 |  | 0.8224 |  |  | inactive | inactive | inactive |  | 
16 | N#Cc1ccc2c(c1)C(c1ccccc1F)=NCC(=O)N2 | 1.7466 | 3.7466 | 0.5705 | 2.6327 | 0.5705 |  |  |  |  |  | 
17 | COc1ccccc1C1=NCC(=O)Nc2ccc(Cl)cc21 | 0.4778 | 2.4778 | 0.0007 | 1.6027 | 0.0007 |  |  |  |  |  | 
18 | CN(C)c1ccc2c(c1)C(c1ccccc1Cl)=NCC(=O)N2C | 0.6121 | 1.9131 | 0.3391 | 2.8162 | 0.3391 |  |  |  |  |  | 
19 | O=C1CN=C(c2ccccc2C(F)(F)F)c2cc([N+](=O)[O-])ccc2N1 | 1.5428 | 3.5424 | 0.5428 | 2.6977 | 0.5428 |  |  |  |  |  | 
20 | O=C1CN=C(c2cccc([N+](=O)[O-])c2)c2cc([N+](=O)[O-])ccc2N1 |  |  | -0.0888 | 0.8142 | -0.0888 |  | inactive |  |  |  | 
21 | O=C1CN=C(c2ccccc2)c2cc(C(F)(F)F)ccc2N1 [RO-052904] | 1.4829 | 3.4829 | 1.4829 | 2.4829 | 1.4829 |  |  |  |  |  | 
22 | CN1C(=O)CN=C(c2ccccc2F)c2cc([N+](=O)[O-])ccc21 [FLUNITRAZEPAM] | 2.5925 | 4.1945 | 2.4955 | 2.4164 | 2.4955 |  |  |  |  |  | 
23 | CN(C)c1ccc2c(c1)C(c1ccccc1)=NCC(=O)N2C | 0.8648 | 2.4669 | 0.2908 | 1.6887 | 0.2908 |  |  |  |  |  | 
24 | CN1C(=O)CN=C(c2ccccc2F)c2cc(F)ccc21 |  | 1.7574 | 0.1457 | 0.3325 | 0.1457 |  | inactive |  |  |  | 

Row | SMILES | log(1/MED) (Mus musculus [1]) | log(1/MED) (Felis catus) | log(1/ED50) (Mus musculus [2]) | log(1/ED50) (Mus musculus [3]) | log(1/ED50) (Mus musculus [4]) | ED50 (Mus musculus [1]; Mus musculus) | Activity (Mus musculus [1]) | Activity (Mus musculus [2]) | Activity (Mus musculus [4]) | Activity (Mus musculus [3]) | ED50 (Mus musculus [3]; Mus musculus)
25 | COc1ccc(C2=NCC(=O)Nc3ccc(Cl)cc32)cc1 |  |  |  | -0.4253 |  |  | inactive | inactive | inactive |  | 
26 | Cc1cccc(C2=NCC(=O)Nc3ccc(Cl)cc32)c1 |  |  |  | 0.8519 |  |  | inactive | inactive | inactive |  | 
27 | O=C1CN=C(c2ccccc2F)c2cc([N+](=O)[O-])ccc2N1 | 2.1746 | 3.7767 | 1.8736 | 2.4934 | 1.8736 |  |  |  |  |  | 0.3 mg/kg
28 | O=C1CN=C(c2ccccc2F)c2cc(Cl)ccc2N1 [N-DESALKYL-2-OXOQUAZEPAM] | 1.7611 | 3.7611 | 0.858 | 3.4601 | 0.858 |  |  |  |  |  | 
29 | O=C1CN=C(c2ccccc2Cl)c2cc([N+](=O)[O-])ccc2N1 [CLONAZEPAM] | 1.1979 | 3.8 |  | 3.2948 |  |  |  | inactive | inactive |  | 
30 | CN1C(=O)CN=C(c2ccccc2Cl)c2cc([N+](=O)[O-])ccc21 [RO-054082] | 2.1198 | 3.8188 | 1.0407 | 3.4386 | 1.0407 |  |  |  |  |  | 
31 | Cc1cc2c(cc1C)C(c1ccccc1)=NCC(=O)N2 |  |  |  | 0.2978 |  |  | inactive | inactive | inactive |  | 
32 | Cc1cc([N+](=O)[O-])cc2c1NC(=O)CN=C2c1ccccc1 | 1.1688 | 2.7709 | 1.1688 | 1.5613 | 1.1688 |  |  |  |  |  | 
33 | N#Cc1ccc2c(c1)C(c1ccccc1)=NCC(=O)N2 | 0.8146 | 2.7177 | 0.5416 | 2.3027 | 0.5416 |  |  |  |  |  | 
34 | C[S+]([O-])c1ccc2c(c1)C(c1ccccc1)=NCC(=O)N2 (stereo not drawn) |  | 1.8722 | 0.2313 | 1.0764 | 0.2313 |  | inactive |  |  |  | 
35 | O=C1CN=C(c2ccccc2F)c2cc(Br)ccc2N1 | 2.1244 | 3.8233 | 1.5223 | 2.8233 | 1.5223 |  |  |  |  |  | 
36 | O=C1CN=C(c2ccccc2C(F)(F)F)c2cc(C(F)(F)F)ccc2N1 | 1.2695 | 2.8716 | 1.0934 | 1.9685 | 1.0934 |  |  |  |  |  | 
37 | COc1cc2c(cc1Br)C(c1ccccc1)=NCC(=O)N2 | 0.6346 |  | 0.3616 | 1.6626 | 0.3616 |  |  |  |  |  | 
38 | COc1cccc(C2=NCC(=O)Nc3ccc(Cl)cc32)c1 |  |  |  | 2.2225 |  |  | inactive | inactive | inactive |  | 
39 | CN1C(=O)CN=C(c2ccccc2)c2cc(Cl)ccc21 [DIAZEPAM] | 1.454 | 3.153 | 0.9769 | 2.3079 | 0.9769 |  |  |  |  |  | 
40 | Cc1cc(C)c2c(c1)C(c1ccccc1)=NCC(=O)N2 | 0.4216 |  | -0.2316 |  | -0.2316 |  |  |  |  | inactive | 
41 | CN1C(=O)CN=C(c2ccccc2Cl)c2cc(Cl)ccc21 | 1.5037 | 3.5037 | 0.9016 | 2.8804 | 0.9016 |  |  |  |  |  | 
42 | CN1C(=O)CN=C(c2ccccc2)c2cc(C#N)ccc21 | 1.7404 | 2.7404 | 1.1382 | 2.4393 | 1.1382 |  |  |  |  |  | 
43 | O=C1CN=C(c2ccccc2)c2cc(Br)ccc2N1 | 1.1971 | 2.7992 | 1.1002 | 2.1971 | 1.1002 |  |  |  |  |  | 
44 | Cc1ccc2c(c1)C(c1ccccc1)=NCC(=O)N2 |  |  |  | 0.1549 |  |  | inactive | inactive | inactive |  | 
45 | O=C1CN=C(c2cccc(F)c2)c2cc(Cl)ccc2N1 | 0.858 | 2.159 | 0.159 | 1.8368 | 0.159 |  |  |  |  |  | 
46 | CCSc1ccc2c(c1)C(c1ccccc1)=NCC(=O)N2 |  |  |  | 0.2702 |  |  | inactive |  |  |  | 
47 | CN1C(=O)CN=C(c2ccc(Cl)cc2)c2cc(Cl)ccc21 [RO-54864] |  |  | 0.5037 |  | 0.5037 |  | inactive |  |  | inactive | 
